In general, remaining activity refers to the share of the control activity or signal that is left under treatment.

These results are taken from patent US20110152313A1 (MACQUARIE UNIVERSITY, priority 2008, published 2011).

Common to all, as to assay: kinase binding screen (kinase-tagged T7 phage, qPCR), % Ctrl
The target of one test is CAMKK2 (Homo sapiens, UniProt Q96RR4). Here is the method: (§1) Percentage kinase inhibition at a set concentration was performed by methods well known in the prior art (Fabian, M. A. et al. Nat. Biotechnol. 2005, 23, 329; Karaman et al. (2008) Nat. Biotechnol. […], 26, 127). Briefly, kinase-tagged T7 phage strains were grown in parallel in 24-well blocks in an E. coli host derived from the BL21 strain. E. coli were grown to log-phase and infected with T7 phage from a frozen stock (multiplicity of infection=0.4) and incubated with shaking at 32° C. until lysis (90-150 minutes). The lysates were centrifuged (6,000×g) and filtered (0.2 μm) to remove cell debris. […] The liganded beads were blocked with excess biotin and washed with blocking buffer (SeaBlock (Pierce); 1% BSA, 0.05% Tween 20, 1 mM DTT) to remove unbound ligand and to reduce non-specific phage binding. […] Test compounds were prepared as 40× stocks in 100% DMSO and directly diluted into the assay. All reactions were performed in polypropylene 384-well plates in a final volume of 0.04 mL. […] The kinase concentration in the eluates was measured by qPCR.
Sequence of CAMKK2 (Q96RR4 whole entry): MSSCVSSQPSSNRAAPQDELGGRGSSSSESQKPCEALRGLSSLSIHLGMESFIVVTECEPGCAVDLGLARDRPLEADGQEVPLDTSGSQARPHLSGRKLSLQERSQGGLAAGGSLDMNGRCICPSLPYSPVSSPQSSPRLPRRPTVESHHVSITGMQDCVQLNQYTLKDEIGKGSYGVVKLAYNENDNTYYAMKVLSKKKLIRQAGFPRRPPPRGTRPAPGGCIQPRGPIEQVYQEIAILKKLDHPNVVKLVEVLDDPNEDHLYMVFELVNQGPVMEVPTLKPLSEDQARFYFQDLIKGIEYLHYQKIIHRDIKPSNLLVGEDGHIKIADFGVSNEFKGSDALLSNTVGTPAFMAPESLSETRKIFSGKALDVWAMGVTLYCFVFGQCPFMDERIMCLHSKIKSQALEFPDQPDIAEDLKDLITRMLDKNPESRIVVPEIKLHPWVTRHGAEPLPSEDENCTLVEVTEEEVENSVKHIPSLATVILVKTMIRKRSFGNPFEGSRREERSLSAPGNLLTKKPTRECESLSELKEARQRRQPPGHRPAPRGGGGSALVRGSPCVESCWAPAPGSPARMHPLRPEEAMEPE

The next test addresses T1, GAK (Homo sapiens, UniProt O14976).
T1 sequence (O14976 1-1311): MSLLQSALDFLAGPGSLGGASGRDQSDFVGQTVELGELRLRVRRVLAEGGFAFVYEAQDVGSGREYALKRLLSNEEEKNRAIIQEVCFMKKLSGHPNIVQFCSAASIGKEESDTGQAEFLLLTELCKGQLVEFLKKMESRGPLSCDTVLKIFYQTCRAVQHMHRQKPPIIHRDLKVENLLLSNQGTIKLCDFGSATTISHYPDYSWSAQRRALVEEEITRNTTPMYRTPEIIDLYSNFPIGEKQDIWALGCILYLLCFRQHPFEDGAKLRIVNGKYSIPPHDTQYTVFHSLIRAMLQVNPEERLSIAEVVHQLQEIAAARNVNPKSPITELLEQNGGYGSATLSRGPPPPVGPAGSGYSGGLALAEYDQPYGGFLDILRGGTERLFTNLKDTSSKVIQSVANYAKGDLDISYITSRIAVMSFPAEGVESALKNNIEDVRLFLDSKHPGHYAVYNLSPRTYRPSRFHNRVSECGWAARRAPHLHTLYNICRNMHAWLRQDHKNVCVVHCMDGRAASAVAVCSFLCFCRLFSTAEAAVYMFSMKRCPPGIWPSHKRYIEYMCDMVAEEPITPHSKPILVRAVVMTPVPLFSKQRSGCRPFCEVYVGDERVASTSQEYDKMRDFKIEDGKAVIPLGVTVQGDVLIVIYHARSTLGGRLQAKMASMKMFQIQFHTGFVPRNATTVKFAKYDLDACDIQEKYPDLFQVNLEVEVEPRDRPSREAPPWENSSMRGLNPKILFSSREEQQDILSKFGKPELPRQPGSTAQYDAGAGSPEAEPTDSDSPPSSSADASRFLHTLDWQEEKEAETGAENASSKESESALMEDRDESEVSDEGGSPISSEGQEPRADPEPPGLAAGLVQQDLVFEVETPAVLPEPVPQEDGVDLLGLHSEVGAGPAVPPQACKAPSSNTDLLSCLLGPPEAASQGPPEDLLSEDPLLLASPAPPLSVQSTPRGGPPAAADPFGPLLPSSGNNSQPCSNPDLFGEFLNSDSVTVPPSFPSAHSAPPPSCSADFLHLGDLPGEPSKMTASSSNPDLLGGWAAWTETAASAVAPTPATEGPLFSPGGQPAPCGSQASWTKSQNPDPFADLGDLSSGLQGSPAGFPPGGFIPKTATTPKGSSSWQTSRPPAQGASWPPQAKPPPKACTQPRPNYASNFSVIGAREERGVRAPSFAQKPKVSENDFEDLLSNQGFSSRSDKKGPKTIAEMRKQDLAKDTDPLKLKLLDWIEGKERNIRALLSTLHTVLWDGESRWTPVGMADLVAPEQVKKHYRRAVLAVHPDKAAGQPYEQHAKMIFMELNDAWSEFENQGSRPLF
Here is the method:
as §1

In the next test the target is T2, GRK1 (Homo sapiens, UniProt Q15835).
T2 sequence (Q15835 1-563): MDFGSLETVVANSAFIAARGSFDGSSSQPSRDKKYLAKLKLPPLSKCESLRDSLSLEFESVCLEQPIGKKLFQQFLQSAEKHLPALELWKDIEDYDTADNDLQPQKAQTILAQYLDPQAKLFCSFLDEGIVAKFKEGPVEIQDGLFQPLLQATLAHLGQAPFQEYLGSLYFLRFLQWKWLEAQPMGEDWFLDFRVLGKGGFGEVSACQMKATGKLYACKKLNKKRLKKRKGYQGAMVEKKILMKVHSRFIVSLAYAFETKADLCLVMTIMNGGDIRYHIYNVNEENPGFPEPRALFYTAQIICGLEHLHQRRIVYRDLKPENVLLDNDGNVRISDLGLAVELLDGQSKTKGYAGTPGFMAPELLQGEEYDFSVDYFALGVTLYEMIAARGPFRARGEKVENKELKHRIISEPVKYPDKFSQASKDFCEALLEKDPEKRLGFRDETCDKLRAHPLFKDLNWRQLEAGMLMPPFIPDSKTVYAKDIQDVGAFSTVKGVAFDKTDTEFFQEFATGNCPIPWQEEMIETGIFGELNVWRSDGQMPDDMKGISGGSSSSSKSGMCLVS
Here is the method: as §1

The target in test [1] is RPS6KA1(Kin.Dom.2-C-terminal) (Homo sapiens, UniProt Q15418). Here is the method:
as §1

Sequence of RPS6KA1(Kin.Dom.2-C-terminal) (Q15418 418-675 limits assumed, species assumed): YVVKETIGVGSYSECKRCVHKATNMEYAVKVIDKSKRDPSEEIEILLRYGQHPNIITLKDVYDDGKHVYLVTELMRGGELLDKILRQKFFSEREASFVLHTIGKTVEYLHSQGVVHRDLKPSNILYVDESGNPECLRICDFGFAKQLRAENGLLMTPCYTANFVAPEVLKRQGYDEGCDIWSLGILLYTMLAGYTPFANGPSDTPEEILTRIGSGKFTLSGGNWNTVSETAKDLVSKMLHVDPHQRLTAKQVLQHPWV

For the compound `Nc1nc2c(-c3cc(Br)c(Br)[nH]3)nccc2[nH]1` [Ageladine A, ageladine A, reference compound], the remaining activity at 1 µM on CAMKK2 came to 90%; at GAK, 45%; on GRK1 it was 80%; in test [1], 20%. Further, the remaining activity at 10 µM on CAMKK2 (10 μM) was determined as 83%; at GAK (10 μM), 19%; on GRK1 (10 μM) it was 85%; in test [1] (10 μM), 22%.
As for `Nc1nc2c(-c3ccccn3)nccc2[nH]1` [drawing 35, 4-(pyrid-2-yl)-1H-imidazo[4,5-c]pyridin-2-amine], the remaining activity at 1 µM at CAMKK2 was 35%; on GAK it was 54%; on GRK1, 49%; in test [1], 33%.
The like results for `Nc1nc2c(-c3cnc4ccccc4c3)nccc2[nH]1` [drawing 36, 4-(quinolin-3-yl)-1H-imidazo[4,5-c]pyridin-2-amine] were, in that order, 100%, 91%, 86% and 92%.
